Test system: MV-4-11 cells
Assay: Gene expression microarray analysis (Affymetrix PrimeView) and GSEA
Type: cell-based, human
Design: RFU PODN (11730768_x_at) / Fold change /veh PODN (11730768_x_at) / RFU LINC00158 (11744669_a_at) / Fold change /veh LINC00158 (11744669_a_at) / RFU DUSP10 (11751237_a_at) / Fold change /veh DUSP10 (11751237_a_at) / RFU ID3 (11757404_x_at) / Fold change /veh ID3 (11757404_x_at) / RFU PLEKHG5 (11737974_s_at) / Fold change /veh PLEKHG5 (11737974_s_at) / RFU LRRC4B (11730491_at) / Fold change /veh LRRC4B (11730491_at) / RFU GIMAP4 (11747438_a_at) / Fold change /veh GIMAP4 (11747438_a_at) / RFU KRT8 (11758183_x_at) / Fold change /veh KRT8 (11758183_x_at) / RFU CNN1 (11734310_a_at) / Fold change /veh CNN1 (11734310_a_at) / RFU VPS37D (11726825_at) / Fold change /veh VPS37D (11726825_at) / RFU C10orf10 (11716522_x_at) / Fold change /veh C10orf10 (11716522_x_at) / RFU KIR2DL2 /// KIR2DL4 /// KIR2DL5A /// KIR2DL5B /// KIR2DS1 /// KIR2DS2 /// KIR2DS3 /// KIR2DS4 /// KIR3DL3 /// KIR3DL3 /// KIR3DS1 (11738374_at) / Fold change /veh KIR2DL2 /// KIR2DL4 /// KIR2DL5A /// KIR2DL5B /// KIR2DS1 /// KIR2DS2 /// KIR2DS3 /// KIR2DS4 /// KIR3DL3 /// KIR3DL3 /// KIR3DS1 (11738374_at) / RFU C1QL1 (11718748_at) / Fold change /veh C1QL1 (11718748_at) / RFU TMPRSS4 (11747572_a_at) / Fold change /veh TMPRSS4 (11747572_a_at) / RFU HAMP (11756126_x_at) / Fold change /veh HAMP (11756126_x_at) / RFU RNFT2 (11725882_a_at) / Fold change /veh RNFT2 (11725882_a_at) / RFU NR4A2 (11747474_a_at) / Fold change /veh NR4A2 (11747474_a_at) / RFU ABCC12 (11746883_a_at) / Fold change /veh ABCC12 (11746883_a_at) / RFU TMEM136 (11760407_x_at) / Fold change /veh TMEM136 (11760407_x_at) / RFU CLDN22 /// WWC2 (11732394_at) / Fold change /veh CLDN22 /// WWC2 (11732394_at) / RFU HLA-DPB1 (11760878_x_at) / Fold change /veh HLA-DPB1 (11760878_x_at) / RFU SPINT1 (11716480_a_at) / Fold change /veh SPINT1 (11716480_a_at) / RFU GAP43 (11754022_s_at) / Fold change /veh GAP43 (11754022_s_at) / RFU A4GNT (11735810_at) / Fold change /veh A4GNT (11735810_at) / RFU PRB3 (11715151_x_at) / Fold change /veh PRB3 (11715151_x_at) / RFU TUBB4B (11761932_at) / Fold change /veh TUBB4B (11761932_at) / RFU CAPN14 (11732068_a_at) / Fold change /veh CAPN14 (11732068_a_at) / RFU TMCC2 (11721928_a_at) / Fold change /veh TMCC2 (11721928_a_at) / RFU IRGQ (11745062_a_at) / Fold change /veh IRGQ (11745062_a_at) / RFU FAM174B (11720279_a_at) / Fold change /veh FAM174B (11720279_a_at) / RFU TMPRSS4 (11748680_a_at) / Fold change /veh TMPRSS4 (11748680_a_at) / RFU FAM212B (11763350_a_at) / Fold change /veh FAM212B (11763350_a_at) / RFU PLEKHG5 (11743358_a_at) / Fold change /veh PLEKHG5 (11743358_a_at) / RFU ZSCAN30 (11745921_a_at) / Fold change /veh ZSCAN30 (11745921_a_at) / RFU CMKLR1 (11741424_a_at) / Fold change /veh CMKLR1 (11741424_a_at) / RFU LOC101060620 /// MAPK8IP1 (11723275_at) / Fold change /veh LOC101060620 /// MAPK8IP1 (11723275_at) / RFU SPTSSB (11747773_x_at) / Fold change /veh SPTSSB (11747773_x_at) / RFU PRSS12 (11739890_at) / Fold change /veh PRSS12 (11739890_at) / RFU BIN1 (11741810_x_at) / Fold change /veh BIN1 (11741810_x_at) / RFU WNT11 (11732464_a_at) / Fold change /veh WNT11 (11732464_a_at) / RFU C10orf10 (11716521_a_at) / Fold change /veh C10orf10 (11716521_a_at) / RFU C5orf56 (11738089_at) / Fold change /veh C5orf56 (11738089_at) / RFU CYB561 (11721691_x_at) / Fold change /veh CYB561 (11721691_x_at) / RFU ANKRD19P (11752326_a_at) / Fold change /veh ANKRD19P (11752326_a_at) / RFU OR2T12 /// OR2T33 /// OR2T8 (11738714_s_at) / Fold change /veh OR2T12 /// OR2T33 /// OR2T8 (11738714_s_at) / RFU VCAN (11748164_a_at) / Fold change /veh VCAN (11748164_a_at) / RFU JSRP1 (11732532_at) / Fold change /veh JSRP1 (11732532_at) / RFU KRTAP10-11 (11738290_x_at) / Fold change /veh KRTAP10-11 (11738290_x_at) / RFU MYO3A (11730013_a_at) / Fold change /veh MYO3A (11730013_a_at) / RFU EBF3 (11725865_a_at) / Fold change /veh EBF3 (11725865_a_at) / RFU CAMK2N1 (11719241_x_at) / Fold change /veh CAMK2N1 (11719241_x_at) / RFU C5orf56 (11738088_a_at) / Fold change /veh C5orf56 (11738088_a_at) / RFU OLFML3 (11715873_a_at) / Fold change /veh OLFML3 (11715873_a_at) / RFU LOC100653217 /// NTM (11731650_a_at) / Fold change /veh LOC100653217 /// NTM (11731650_a_at) / RFU MAPK11 (11762145_a_at) / Fold change /veh MAPK11 (11762145_a_at) / RFU FIZ1 (11724087_x_at) / Fold change /veh FIZ1 (11724087_x_at) / RFU OASL (11726364_x_at) / Fold change /veh OASL (11726364_x_at) / RFU SOX15 (11748057_x_at) / Fold change /veh SOX15 (11748057_x_at) / RFU CD79A (11719716_a_at) / Fold change /veh CD79A (11719716_a_at) / RFU HIST1H1D (11736915_at) / Fold change /veh HIST1H1D (11736915_at) / RFU CASKIN2 (11723855_a_at) / Fold change /veh CASKIN2 (11723855_a_at) / RFU LOC730098 (11760151_x_at) / Fold change /veh LOC730098 (11760151_x_at) / RFU OR4N2 (11742367_at) / Fold change /veh OR4N2 (11742367_at) / RFU PRRT2 (11749266_a_at) / Fold change /veh PRRT2 (11749266_a_at) / RFU SNX32 (11753110_a_at) / Fold change /veh SNX32 (11753110_a_at) / RFU CDHR5 (11726645_a_at) / Fold change /veh CDHR5 (11726645_a_at) / RFU RCAN1 (11760418_a_at) / Fold change /veh RCAN1 (11760418_a_at) / RFU FAM167A (11723789_a_at) / Fold change /veh FAM167A (11723789_a_at) / RFU FAM26E (11764081_at) / Fold change /veh FAM26E (11764081_at) / RFU ISYNA1 (11749810_s_at) / Fold change /veh ISYNA1 (11749810_s_at) / RFU ACY1 (11761880_at) / Fold change /veh ACY1 (11761880_at) / RFU 11764098_at / Fold change /veh 11764098_at / RFU SAMD14 (11745864_x_at) / Fold change /veh SAMD14 (11745864_x_at) / RFU NPB (11741838_a_at) / Fold change /veh NPB (11741838_a_at) / RFU TMPRSS6 (11731388_a_at) / Fold change /veh TMPRSS6 (11731388_a_at) / RFU KRTAP10-2 (11738614_at) / Fold change /veh KRTAP10-2 (11738614_at) / RFU ARHGAP8 /// PRR5-ARHGAP8 (11727945_x_at) / Fold change /veh ARHGAP8 /// PRR5-ARHGAP8 (11727945_x_at) / RFU KRTAP5-7 /// NADSYN1 (11734609_at) / Fold change /veh KRTAP5-7 /// NADSYN1 (11734609_at) / RFU RASL12 (11751679_a_at) / Fold change /veh RASL12 (11751679_a_at) / RFU CDKN2B (11736163_a_at) / Fold change /veh CDKN2B (11736163_a_at) / RFU PRF1 (11729649_at) / Fold change /veh PRF1 (11729649_at) / RFU, ZNF638 /// ZNF638-IT1 / Fold change vs veh, ZNF638 /// ZNF638-IT1 / RFU, PANK3 / Fold change vs veh, PANK3 / RFU, SH3YL1 / Fold change vs veh, SH3YL1 / RFU, ZEB2 / Fold change vs veh, ZEB2 / RFU, NRIP1 / Fold change vs veh, NRIP1 / RFU, PTTG1IP / Fold change vs veh, PTTG1IP / RFU, CAPN2 / Fold change vs veh, CAPN2 / RFU, MED14 / Fold change vs veh, MED14 / RFU, SNORA58 / Fold change vs veh, SNORA58 / RFU, C1orf63 / Fold change vs veh, C1orf63 / RFU, LRRFIP1 / Fold change vs veh, LRRFIP1 / RFU, NDUFAF7 / Fold change vs veh, NDUFAF7 / RFU, SLC12A2 / Fold change vs veh, SLC12A2 / RFU, IBTK / Fold change vs veh, IBTK / RFU, ESF1 / Fold change vs veh, ESF1 / Fold change vs veh, TMEM50B / RFU, TAOK1 / Fold change vs veh, TAOK1 / RFU, ACBD3 / Fold change vs veh, ACBD3 / RFU, TMA16 / Fold change vs veh, TMA16 / RFU, RWDD3 / Fold change vs veh, RWDD3 / RFU, BCAT1 / Fold change vs veh, BCAT1 / RFU, EDEM3 / Fold change vs veh, EDEM3 / RFU, TMEM33 / Fold change vs veh, TMEM33 / RFU, WDR75 / Fold change vs veh, WDR75 / RFU, AHCTF1 / Fold change vs veh, AHCTF1 / RFU, TFRC / Fold change vs veh, TFRC / RFU, ZDHHC17 / Fold change vs veh, ZDHHC17 / RFU, NOM1 / Fold change vs veh, NOM1 / RFU, ARL8B / Fold change vs veh, ARL8B / RFU, ZBTB11 / Fold change vs veh, ZBTB11 / RFU, TAMM41 / Fold change vs veh, TAMM41 / RFU, KIAA1704 /// LOC100996395 / Fold change vs veh, KIAA1704 /// LOC100996395 / RFU, ING1 / Fold change vs veh, ING1 / RFU, TRMT61B / Fold change vs veh, TRMT61B / RFU, FUBP3 / Fold change vs veh, FUBP3 / RFU, TP53 / Fold change vs veh, TP53 / RFU, TNKS2 / Fold change vs veh, TNKS2 / RFU, ZFP14 / Fold change vs veh, ZFP14 / RFU, ACTR2 / Fold change vs veh, ACTR2 / RFU, PPP3R1 / Fold change vs veh, PPP3R1 / RFU, PIK3R1 / Fold change vs veh, PIK3R1 / RFU, HNRNPA1 / Fold change vs veh, HNRNPA1 / RFU, RNF170 / Fold change vs veh, RNF170 / RFU, ZNF28 / Fold change vs veh, ZNF28 / RFU, RNGTT / Fold change vs veh, RNGTT / RFU, OGT / Fold change vs veh, OGT / RFU, BRD1 / Fold change vs veh, BRD1 / RFU, MARS / Fold change vs veh, MARS / RFU, ZNF655 / Fold change vs veh, ZNF655 / RFU, FAHD1 / Fold change vs veh, FAHD1 / RFU, BDP1 / Fold change vs veh, BDP1 / RFU, LRRCC1 / Fold change vs veh, LRRCC1 / RFU, ARID1A / Fold change vs veh, ARID1A / RFU, ZNF146 / Fold change vs veh, ZNF146 / RFU, ZNF330 / Fold change vs veh, ZNF330 / RFU, GPN3 / Fold change vs veh, GPN3 / RFU, C9orf123 / Fold change vs veh, C9orf123 / RFU, N4BP2L2 / Fold change vs veh, N4BP2L2 / RFU, ARFIP1 / Fold change vs veh, ARFIP1 / RFU, FAM179B / Fold change vs veh, FAM179B / RFU, BCL10 / Fold change vs veh, BCL10 / RFU, UHRF1BP1L / Fold change vs veh, UHRF1BP1L / RFU, BET1 / Fold change vs veh, BET1 / RFU, CNOT2 / Fold change vs veh, CNOT2 / RFU, ZNF268 / Fold change vs veh, ZNF268 / Fold change vs veh, ZNF507 / RFU, DGCR2 / Fold change vs veh, DGCR2 / RFU, WDSUB1 / Fold change vs veh, WDSUB1 / Fold change vs veh, HSP90B1 /// MIR3652 / RFU, ADSS / Fold change vs veh, ADSS / RFU, GK / Fold change vs veh, GK / RFU, ZNF148 / Fold change vs veh, ZNF148 / RFU, TAF9 / Fold change vs veh, TAF9 / RFU, SLC1A5 / Fold change vs veh, SLC1A5 / RFU, SLMO2 / Fold change vs veh, SLMO2 / RFU, ABCC4 / Fold change vs veh, ABCC4 / RFU, LOC101060439 /// RAP1B / Fold change vs veh, LOC101060439 /// RAP1B / RFU, RFX7 / Fold change vs veh, RFX7 / RFU, GTPBP10 / Fold change vs veh, GTPBP10 / RFU, CNEP1R1 / Fold change vs veh, CNEP1R1 / RFU, BIVM-ERCC5 /// ERCC5 / Fold change vs veh, BIVM-ERCC5 /// ERCC5 / RFU, ILF3 / Fold change vs veh, ILF3 / RFU 11762660_at / Fold change /veh 11762660_at / RFU VCAN (11757783_s_at) / Fold change /veh VCAN (11757783_s_at) / RFU DDX43 (11728927_at) / Fold change /veh DDX43 (11728927_at) / RFU KRT8 (11758188_x_at) / Fold change /veh KRT8 (11758188_x_at) / RFU NKD1 (11759106_at) / Fold change /veh NKD1 (11759106_at) / RFU SRD5A1 (11742802_a_at) / Fold change /veh SRD5A1 (11742802_a_at) / RFU TPSAB1 /// TPSB2 (11721975_s_at) / Fold change /veh TPSAB1 /// TPSB2 (11721975_s_at) / RFU GSTM3 (11746129_a_at) / Fold change /veh GSTM3 (11746129_a_at) / RFU IL23R (11737362_x_at) / Fold change /veh IL23R (11737362_x_at) / RFU TMEM51 (11727254_a_at) / Fold change /veh TMEM51 (11727254_a_at) / RFU PIWIL2 (11732686_x_at) / Fold change /veh PIWIL2 (11732686_x_at) / RFU ORM1 (11744905_x_at) / Fold change /veh ORM1 (11744905_x_at) / RFU CCDC152 (11743942_at) / Fold change /veh CCDC152 (11743942_at) / RFU ECM1 (11717891_a_at) / Fold change /veh ECM1 (11717891_a_at) / RFU IL23R (11748794_a_at) / Fold change /veh IL23R (11748794_a_at) / RFU TNFAIP8L3 (11732012_x_at) / Fold change /veh TNFAIP8L3 (11732012_x_at) / RFU MBOAT4 (11741988_at) / Fold change /veh MBOAT4 (11741988_at) / RFU 11764193_at / Fold change /veh 11764193_at / RFU TMEM53 (11763286_at) / Fold change /veh TMEM53 (11763286_at) / RFU MAGEB2 (11727129_at) / Fold change /veh MAGEB2 (11727129_at) / RFU TMEM200A (11744735_a_at) / Fold change /veh TMEM200A (11744735_a_at) / RFU CCDC152 (11751479_a_at) / Fold change /veh CCDC152 (11751479_a_at) / RFU FAM211A (11726209_a_at) / Fold change /veh FAM211A (11726209_a_at) / RFU RGS16 (11746705_a_at) / Fold change /veh RGS16 (11746705_a_at) / RFU VCAN (11755009_s_at) / Fold change /veh VCAN (11755009_s_at) / RFU RHOB (11743442_s_at) / Fold change /veh RHOB (11743442_s_at) / RFU RGS16 (11720943_a_at) / Fold change /veh RGS16 (11720943_a_at) / RFU RGS16 (11720944_at) / Fold change /veh RGS16 (11720944_at) / RFU, VPS4B / Fold change vs veh, VPS4B / RFU, CREB1 / Fold change vs veh, CREB1 / RFU, DNAJC13 / Fold change vs veh, DNAJC13 / RFU, GNAQ / Fold change vs veh, GNAQ / RFU, CDK5R1 / Fold change vs veh, CDK5R1 / RFU, ZRANB3 / Fold change vs veh, ZRANB3 / RFU, CUL4A / Fold change vs veh, CUL4A / RFU, CCNY / Fold change vs veh, CCNY / RFU, UFL1 / Fold change vs veh, UFL1 / RFU, COG3 / Fold change vs veh, COG3 / RFU, DIAPH2 / Fold change vs veh, DIAPH2 / RFU, SKA2 / Fold change vs veh, SKA2 / RFU, AFF3 / Fold change vs veh, AFF3 / RFU, LMF1 / Fold change vs veh, LMF1 / RFU, IPO11 / Fold change vs veh, IPO11 / RFU, DFFB / Fold change vs veh, DFFB / RFU, FOXP1 / Fold change vs veh, FOXP1 / RFU, CARD8 / Fold change vs veh, CARD8 / RFU, STRN3 / Fold change vs veh, STRN3 / RFU, ADK / Fold change vs veh, ADK / RFU, RASSF2 / Fold change vs veh, RASSF2 / RFU, WIPF1 / Fold change vs veh, WIPF1 / RFU, LARP1B / Fold change vs veh, LARP1B / RFU, RASA1 / Fold change vs veh, RASA1 / RFU, RB1 / Fold change vs veh, RB1 / RFU, PPFIA1 / Fold change vs veh, PPFIA1 / RFU, MAT2A / Fold change vs veh, MAT2A / RFU, CCT5 / Fold change vs veh, CCT5 / RFU, WDR92 / Fold change vs veh, WDR92 / RFU, CUX1 / Fold change vs veh, CUX1 / RFU, TTC7A / Fold change vs veh, TTC7A / RFU, TMEM135 / Fold change vs veh, TMEM135 / RFU, DEPTOR / Fold change vs veh, DEPTOR / RFU, CPM / Fold change vs veh, CPM / RFU, DNAJB6 / Fold change vs veh, DNAJB6 / RFU, CACNA2D3 / Fold change vs veh, CACNA2D3 / RFU, DTX4 / Fold change vs veh, DTX4 / RFU, TFCP2 / Fold change vs veh, TFCP2 / RFU, GMCL1 /// GMCL1P1 / Fold change vs veh, GMCL1 /// GMCL1P1 / RFU, AEBP2 / Fold change vs veh, AEBP2 / RFU, SNHG1 /// SNORD22 /// SNORD25 /// SNORD26 /// SNORD27 /// SNORD28 /// SNORD29 /// SNORD31 / Fold change vs veh, SNHG1 /// SNORD22 /// SNORD25 /// SNORD26 /// SNORD27 /// SNORD28 /// SNORD29 /// SNORD31 / Fold change (Aza/veh), C12orf56 (ProbeSet 11735607_a_at) / Fold change (ACY-1035/veh), C12orf56 (ProbeSet 11735607_a_at) / Fold change (Aza/veh), FGFR1OP (ProbeSet 11751329_s_at) / Fold change (ACY-1035/veh), FGFR1OP (ProbeSet 11751329_s_at) / Fold change (Aza/veh), VPS36 (ProbeSet 11739960_a_at) / Fold change (ACY-1035/veh), VPS36 (ProbeSet 11739960_a_at) / RFU SYPL1 (11715823_x_at) / Fold change /veh SYPL1 (11715823_x_at) / RFU IGFBP7 (11715501_s_at) / Fold change /veh IGFBP7 (11715501_s_at) / RFU REEP3 (11722064_at) / Fold change /veh REEP3 (11722064_at) / RFU IGLL1 (11728026_x_at) / Fold change /veh IGLL1 (11728026_x_at): dose or concentration left out as unconfirmed
Conditions: ProbeSet 11746640_a_at; LIST D

## Nc1ncn([C@@H]2O[C@H](CO)[C@@H](O)[C@H]2O)c(=O)n1 [azacitidine]
  Fold change vs veh, RASSF2: 0.77

Reference: paper PMC5218480 (PLoS ONE, 2017)
